According to paper PMC11555678, “Improved Broad Spectrum Antifungal Drug Synergies with Cryptomycin, a Cdc50-Inspired Antifungal Peptide” (ACS Infectious Diseases, 2024):
Read-outs that look alike come from different tables or passages of the source.

How the values were obtained:
C. neoformans H99 = format: cell-based, Cryptococcus neoformans; details: for MIC of antifungal in combination with (FITC)KKOO / MIC of antifungal in combination with KKOO / MIC of antifungal in combination with KKOO-NH2: RPMI1640, 37 °C; for MIC of antifungal in combination with KKOO / MIC of antifungal in combination with KKOO-NH2: 48 h
Procedure: All microdilution assays with fungi were carried out in accordance with CLSI protocols from M27 for yeasts and M38 for filamentous fungi, respectively, unless otherwise specified.[64],[65] Briefly, 96-well plates were charged with RPMI1640 media, with operating volume in the first column, 200 μL, and half operating volume, 100 μL, in the remaining wells. Drug stock solution in DMSO was aliquoted into the first well in each row. Half of the volume in the dosed well was serially diluted 2-fold until column 11. Column 11 was used as the negative growth control, and column 12 was used as the positive growth control. ON yeast cultures in YPD were washed twice in DD-H2O, resuspended in PBS, and adjusted to 5000 cfu/mL in RPMI. The 96-well plate was inoculated with 100 μL aliquots of cell suspension per well. […]
(§1) To assess drug synergy, the initial media charged to the plate contained the peptide at twice the final operating concentration; the remaining processing steps were identical to the MIC experiment. Upon addition of 100 μL of inoculant, the final operating concentration was achieved. Control MIC plates were prepared alongside drug synergy plates to account for the day-to-day variability in any individual MIC. FIC index is computed using eq 1. All MIC assays and drug synergy assays were completed with two technical replicates per 96-well plate and a minimum of two biological replicates per drug combination. If a difference in MIC between the two technical replicates on the plate were observed, only the higher concentration was reported as the MIC to reduce the possibility of type 1 error (false positive) [drawing 1] 1

C. glabrata 2001 = format: cell-based, Candida glabrata; details: RPMI1640, 37 °C, 48 h
Procedure: (§2) All microdilution assays with fungi were carried out in accordance with CLSI protocols from M27 for yeasts and M38 for filamentous fungi, respectively, unless otherwise specified.[64],[65] Briefly, 96-well plates were charged with RPMI1640 media, with operating volume in the first column, 200 μL, and half operating volume, 100 μL, in the remaining wells. Drug stock solution in DMSO was aliquoted into the first well in each row. Half of the volume in the dosed well was serially diluted 2-fold until column 11. Column 11 was used as the negative growth control, and column 12 was used as the positive growth control. ON yeast cultures in YPD were washed twice in DD-H2O, resuspended in PBS, and adjusted to 5000 cfu/mL in RPMI. The 96-well plate was inoculated with 100 μL aliquots of cell suspension per well. Plates were incubated at 37 °C for 2 days.
as §1

Cg FKS1 S629P = assay: Drug synergy (MIC in peptide-supplemented media); format: cell-based, Candida glabrata; details: RPMI1640, 37 °C, 48 h
Procedure: as §2, §1

Cg FKS2 S663P = assay: Drug synergy (MIC in peptide-supplemented media); format: cell-based, Candida glabrata; details: RPMI1640, 37 °C, 48 h
Procedure: as §2, §1

| Compound | MIC of antifungal in combination with (FITC)KKOO (C. neoformans H99; +0 μg/mL (FITC)KKOO) | MIC of antifungal in combination with KKOO (C. neoformans H99; +0 μg/mL KKOO (control)) | MIC of antifungal in combination with KKOO-NH2 (C. neoformans H99; +0 μg/mL KKOO-NH2 (control)) | MIC of antifungal in combination with KKOO-NH2 (C. neoformans H99; +1 μg/mL KKOO-NH2) | MIC of antifungal in combination with KKOO (C. neoformans H99; +1 μg/mL KKOO) | MIC of antifungal in combination with KKOO-NH2 (C. neoformans H99; +2 μg/mL KKOO-NH2) | MIC of antifungal in combination with KKOO (C. neoformans H99; +2 μg/mL KKOO) | MIC of antifungal in combination with (FITC)KKOO (C. neoformans H99; +4 μg/mL (FITC)KKOO) | MIC of antifungal in combination with KKOO-NH2 (C. neoformans H99; +4 μg/mL KKOO-NH2) | MIC of antifungal in combination with KKOO (C. neoformans H99; +4 μg/mL KKOO) | MIC of antifungal in combination with (FITC)KKOO (C. neoformans H99; +8 μg/mL (FITC)KKOO) | MIC of antifungal in combination with KKOO (C. neoformans H99; +8 μg/mL KKOO) | MIC of antifungal in combination with KKOO (C. glabrata 2001; +0 μg/mL KKOO (control)) | MIC of antifungal in combination with KKOO-NH2 (C. glabrata 2001; +0 μg/mL KKOO-NH2 (control)) | MIC of antifungal in combination with KKOO-NH2 (C. glabrata 2001; +1 μg/mL KKOO-NH2) | MIC of antifungal in combination with KKOO (C. glabrata 2001; +1 μg/mL KKOO) | MIC of antifungal in combination with KKOO-NH2 (C. glabrata 2001; +2 μg/mL KKOO-NH2) | MIC of antifungal in combination with KKOO (C. glabrata 2001; +2 μg/mL KKOO) | MIC of antifungal in combination with KKOO-NH2 (C. glabrata 2001; +4 μg/mL KKOO-NH2) | MIC of antifungal in combination with KKOO (C. glabrata 2001; +4 μg/mL KKOO) | further results |
| --- | --- | --- | --- | --- | --- | --- | --- | --- | --- | --- | --- | --- | --- | --- | --- | --- | --- | --- | --- | --- | --- |
| CCC(C)n1ncn(-c2ccc(N3CCN(c4ccc(OCC5COC(Cn6cncn6)(c6ccc(Cl)cc6Cl)O5)cc4)CC3)cc2)c1=O (centres unmarked) [ITR, itraconazole] | 0.125 µg/mL | 0.125 µg/mL | 0.125 µg/mL | 0.031 µg/mL | 0.062 µg/mL | 0.016 µg/mL | 0.016 µg/mL | 0.062 µg/mL | 0.008 µg/mL | 0.016 µg/mL | 0.031 µg/mL | 0.008 µg/mL | 0.5 µg/mL | 0.5 µg/mL | 0.25 µg/mL | 0.25 µg/mL | 0.125 µg/mL | 0.125 µg/mL | 0.031 µg/mL | 0.062 µg/mL | reduction of MIC of antifungal (C. neoformans H99; in the presence of 2 μg/mL KKOO-NH2, 48 h): 8 fold; MIC of antifungal in combination with KKOO (C. glabrata 2001; +8 μg/mL KKOO): 0.062 µg/mL; MIC of antifungal in combination with KKOO (Cg FKS1 S629P; +0 μg/mL KKOO (control)): 0.125 µg/mL; MIC of antifungal in combination with KKOO-NH2 (Cg FKS1 S629P; +0 μg/mL KKOO-NH2 (control)): 0.062 µg/mL; MIC of antifungal in combination with KKOO-NH2 (Cg FKS1 S629P; +1 μg/mL KKOO-NH2): 0.031 µg/mL; MIC of antifungal in combination with KKOO (Cg FKS1 S629P; +1 μg/mL KKOO): 0.062 µg/mL; MIC of antifungal in combination with KKOO-NH2 (Cg FKS1 S629P; +2 μg/mL KKOO-NH2): 0.016 µg/mL; MIC of antifungal in combination with KKOO (Cg FKS1 S629P; +2 μg/mL KKOO): 0.031 µg/mL; MIC of antifungal in combination with KKOO-NH2 (Cg FKS1 S629P; +4 μg/mL KKOO-NH2): 0.008 µg/mL; MIC of antifungal in combination with KKOO (Cg FKS1 S629P; +4 μg/mL KKOO): 0.016 µg/mL; MIC of antifungal in combination with KKOO (Cg FKS2 S663P; +0 μg/mL KKOO (control)): 0.031 µg/mL; MIC of antifungal in combination with KKOO-NH2 (Cg FKS2 S663P; +0 μg/mL KKOO-NH2 (control)): 0.031 µg/mL; MIC of antifungal in combination with KKOO-NH2 (Cg FKS2 S663P; +1 μg/mL KKOO-NH2): 0.016 µg/mL; MIC of antifungal in combination with KKOO (Cg FKS2 S663P; +1 μg/mL KKOO): 0.016 µg/mL; MIC of antifungal in combination with KKOO-NH2 (Cg FKS2 S663P; +2 μg/mL KKOO-NH2): 0.004 µg/mL; MIC of antifungal in combination with KKOO (Cg FKS2 S663P; +2 μg/mL KKOO): 0.016 µg/mL; MIC of antifungal in combination with KKOO-NH2 (Cg FKS2 S663P; +4 μg/mL KKOO-NH2): 0.002 µg/mL; MIC of antifungal in combination with KKOO (Cg FKS2 S663P; +4 μg/mL KKOO): 0.556 µg/mL |
| C[C@@H]1[C@H](O)[C@@H](C)/C=C/C=C/C=C/C=C/C=C/C=C/C=C/[C@H](O[C@@H]2O[C@H](C)[C@@H](O)[C@H](N)[C@@H]2O)C[C@@H]2O[C@](O)(C[C@@H](O)C[C@@H](O)[C@H](O)CC[C@@H](O)C[C@@H](O)CC(=O)O[C@H]1C)C[C@H](O)[C@H]2C(=O)O [AMB, amphotericin B] | 0.5 µg/mL | 0.5 µg/mL | 0.5 µg/mL | 0.062 µg/mL | 0.25 µg/mL | 0.062 µg/mL | 0.062 µg/mL | 0.125 µg/mL | 0.031 µg/mL | 0.062 µg/mL | 0.062 µg/mL | 0.062 µg/mL | 1 µg/mL | 1 µg/mL | 0.5 µg/mL | 0.5 µg/mL | 0.25 µg/mL | 0.25 µg/mL | 0.25 µg/mL | 0.25 µg/mL | reduction of MIC of antifungal (C. neoformans H99; in the presence of 1 μg/mL KKOO-NH2, 48 h): 8 fold; reduction of MIC of antifungal (C. neoformans H99; in the presence of 4 μg/mL (FITC)KKOO): 4 fold; MIC of antifungal in combination with KKOO (C. glabrata 2001; +8 μg/mL KKOO): 0.125 µg/mL; MIC of antifungal in combination with KKOO (Cg FKS1 S629P; +0 μg/mL KKOO (control)): 1 µg/mL; MIC of antifungal in combination with KKOO-NH2 (Cg FKS1 S629P; +0 μg/mL KKOO-NH2 (control)): 0.5 µg/mL; MIC of antifungal in combination with KKOO-NH2 (Cg FKS1 S629P; +1 μg/mL KKOO-NH2): 0.25 µg/mL; MIC of antifungal in combination with KKOO (Cg FKS1 S629P; +1 μg/mL KKOO): 0.5 µg/mL; MIC of antifungal in combination with KKOO-NH2 (Cg FKS1 S629P; +2 μg/mL KKOO-NH2): 0.125 µg/mL; MIC of antifungal in combination with KKOO (Cg FKS1 S629P; +2 μg/mL KKOO): 0.25 µg/mL; MIC of antifungal in combination with KKOO-NH2 (Cg FKS1 S629P; +4 μg/mL KKOO-NH2): 0.062 µg/mL; MIC of antifungal in combination with KKOO (Cg FKS1 S629P; +4 μg/mL KKOO): 0.25 µg/mL; MIC of antifungal in combination with KKOO (Cg FKS2 S663P; +0 μg/mL KKOO (control)): 0.25 µg/mL; MIC of antifungal in combination with KKOO-NH2 (Cg FKS2 S663P; +0 μg/mL KKOO-NH2 (control)): 0.25 µg/mL; MIC of antifungal in combination with KKOO-NH2 (Cg FKS2 S663P; +1 μg/mL KKOO-NH2): 0.25 µg/mL; MIC of antifungal in combination with KKOO (Cg FKS2 S663P; +1 μg/mL KKOO): 0.25 µg/mL; MIC of antifungal in combination with KKOO-NH2 (Cg FKS2 S663P; +2 μg/mL KKOO-NH2): 0.062 µg/mL; MIC of antifungal in combination with KKOO (Cg FKS2 S663P; +2 μg/mL KKOO): 0.125 µg/mL; MIC of antifungal in combination with KKOO-NH2 (Cg FKS2 S663P; +4 μg/mL KKOO-NH2): 0.016 µg/mL; MIC of antifungal in combination with KKOO (Cg FKS2 S663P; +4 μg/mL KKOO): 0.031 µg/mL |
